Here are results for one compound from PMC10949335, “Identification of a novel DNA repair inhibitor using an in silico driven approach shows effective combinatorial activity with genotoxic agents against multidrug‐resistant Escherichia coli” (Protein Science : A Publication of the Protein Society, 2024).

Broadly, the IC50 is the concentration at which inhibition is half-maximal. A higher IC50 goes with a need for much substance.

Assay [1] deals with T1, UvrA-mNeonGreen (UvrA-mNG) (Escherichia coli, UniProt P0A698).
T1 construct: C-terminal mNeonGreen reporter fusion; plasmid as in Bernacchia et al. 2023
Briefly: C-trap optical tweezers, single-molecule DNA binding. It is filed as biochemical. The following applies: 20 μM Bemcentinib; lambda DNA at 50 pN; 1 mM ATP, 10 mM MgCl2, pH 7.5.

The target of assay [2] is T2, UvrA (Escherichia coli, UniProt P0A698).
T2 construct: recombinant, IPTG-induced, Ni-NTA purified; plasmid as in Bernacchia et al. 2023; homodimer
Briefly: NADH-linked ATPase assay, Hill fit. It is filed as biochemical.

T2 sequence (P0A698 whole entry): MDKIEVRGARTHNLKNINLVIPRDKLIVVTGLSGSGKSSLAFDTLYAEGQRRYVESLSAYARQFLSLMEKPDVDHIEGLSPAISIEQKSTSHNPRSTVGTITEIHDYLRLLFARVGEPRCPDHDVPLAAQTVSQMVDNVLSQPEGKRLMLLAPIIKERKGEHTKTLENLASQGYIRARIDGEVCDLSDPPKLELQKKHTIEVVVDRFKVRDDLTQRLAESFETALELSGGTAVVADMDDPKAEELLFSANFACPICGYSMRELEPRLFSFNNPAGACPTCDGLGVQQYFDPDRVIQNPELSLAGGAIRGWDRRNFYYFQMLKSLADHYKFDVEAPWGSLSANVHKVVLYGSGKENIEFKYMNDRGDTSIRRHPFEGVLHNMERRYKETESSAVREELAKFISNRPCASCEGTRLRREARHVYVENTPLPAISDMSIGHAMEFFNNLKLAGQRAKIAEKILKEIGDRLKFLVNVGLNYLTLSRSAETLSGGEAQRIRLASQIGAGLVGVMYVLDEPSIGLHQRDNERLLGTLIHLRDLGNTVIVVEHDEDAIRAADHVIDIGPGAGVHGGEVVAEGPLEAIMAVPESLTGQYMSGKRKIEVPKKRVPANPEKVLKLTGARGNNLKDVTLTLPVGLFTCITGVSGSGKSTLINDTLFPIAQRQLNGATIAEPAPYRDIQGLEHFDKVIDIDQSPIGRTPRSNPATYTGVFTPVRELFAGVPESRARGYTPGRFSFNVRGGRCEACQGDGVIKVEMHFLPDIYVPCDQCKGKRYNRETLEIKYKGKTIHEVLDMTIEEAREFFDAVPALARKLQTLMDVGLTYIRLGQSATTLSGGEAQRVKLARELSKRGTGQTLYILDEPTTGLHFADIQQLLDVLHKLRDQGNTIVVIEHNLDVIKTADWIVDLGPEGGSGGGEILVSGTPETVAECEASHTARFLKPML
T1 sequence (P0A698 whole entry, the tested form may be a part): as the sequence (P0A698 whole entry) above

Take `Nc1nc(Nc2ccc3c(c2)CC[C@@H](N2CCCC2)CC3)nn1-c1cc2c(nn1)-c1ccccc1CCC2` [Bemcentinib]: the “% reduction in DNA binders per minute at 20 μM” value in assay [1] is ~ 90%. In assay [2], this compound gave an IC50 of 7.49 µM.
